Experimental data: article PMC7472354, “Enhanced Antimicrobial Activity of N-Terminal Derivatives of a Novel Brevinin-1 Peptide from The Skin Secretion of Odorrana schmackeri” (Toxins, 2020)
≈ marks a conversion by molar mass, not a printed value. Entries after “also recorded” stand apart in the source; their conditions may differ. Like-named read-outs stand apart in the source and are kept apart here. Where a SMILES comes first, the peptide text is derived from it.

Assays:
S. aureus = format: cell-based, Staphylococcus aureus; conditions: 24 h
Protocol: (§1) The minimal inhibitory concentrations (MICs) and minimum bactericidal concentrations (MBCs) were evaluated to determine the antimicrobial activity of synthetic peptides. The microorganisms employed in the study are two kinds of Gram-negative bacteria, Escherichia coli (NCTC 10418) and Pseudomonas aeruginosa (ATCC 27853), three kinds of Gram-positive bacteria, Staphylococcus aureus (NCTC 10788), Methicillin-resistant Staphylococcus aureus (MRSA, ATCC 12493) and Enterococcus faecalis (NCTC 12697) and a yeast, Candida albicans (NCPF 1467), as indicated previously. For antimicrobial assays, 5 × 10^5 CFU/mL of bacterial suspensions were incubated with the concentrations of the peptides (ranging from 1 µM to 512 µM) for 24 h at 37 °C. The sterilised broth medium was used as the positive control and the microorganism cultured in the medium only was treated as the negative control. […] The MBC results were defined as the lowest bactericidal concentrations of peptide. The antimicrobial activity of peptides was tested by monitoring the absorbance at 550 nm using an ELISA plate reader (Biolise BioTek EL808, Winooski, VT, USA).
(§2) The activity of peptides in the different environmental conditions including different concentrations of NaCl (50, 100 and 150 mM) and MgCl2 (0.5, 1 and 2 mM), pH (6, 7 and 8), temperature (50 °C, 75 °C and 100 °C) and 10% fetal bovine serum (FBS) solution, was evaluated using the broth microdilution assay as described in the antimicrobial activity assay. For the stability test of peptides in the presence of salt, pH and serum, these conditions were adjusted in the fresh medium that was further used to dilute the bacteria suspension. The peptides were also dissolved in such broth and mixed with the bacteria suspension in the 96 well plate. For the thermal stability test, the peptides were dissolved in the water and incubated at different temperature for 15 min before dosing in the plate. The sterilised broth with corresponding conditions was used as the positive controls, and the bacteria suspension without any treatment was used as the negative controls.

MRSA [1] = format: cell-based, Staphylococcus aureus; conditions: 24 h
Protocol: as §1, §2

[2] = test system: E. faecalis (NCTC 12697) biofilm; format: cell-based, Enterococcus faecalis; conditions: for MBIC50 / MBIC90: NCTC 12697, 24 h
Protocol: (§3) The anti-biofilm effects of all synthetic peptides were evaluated, which was described in our previous study. The organisms, including S. aureus (NCTC 10788), E. coli (NCTC 10418), MRSA (ATCC 12493), E. faecalis (NCTC 12697) and P. aeruginosa (ATCC 27853), were investigated in this study. Gram-positive bacteria were cultured in the TSB broth and Gram-negative bacteria were cultured in the LB broth. The anti-biofilm effects were determined based on the MBIC and MBEC of all the peptides. For the determination of MBIC, 5 × 10^5 CFU/mL bacterial cultures were incubated with the peptides concentrations (ranging from 1 µM to 512 µM) for 24 h. The sterilised medium and bacterial suspension without any treatment were used as the negative controls and positive controls, respectively. After incubation, wells were rinsed, fixed, stained, washed and dissolved with phosphate buffer saline (PBS), methanol (90%, v/v), crystal violet (0.1%, w/v), sterile deionised water and acetic acid (30%, v/v), respectively. The absorbance of dissolved stain was measured at a 595 nm using a Synergy HT plate reader (Biotech, Minneapolis, MN, USA).
(§4) For the MBEC assay, the peptide concentrations were prepared as above. The bacteria were cultured in the 96 well plate for 24–48 h, which allowed the formation of mature biofilm in the plate. Then, the bacterial culture was removed from the plate. The biofilm was further washed to remove the planktonic bacteria using PBS. Then, the fresh broth that contained different peptide concentrations was added in the plate for incubation of 24 h at 37 °C. After incubation, the plate was stained by crystal violet as mentioned above. The definition of MBIC can be given when compared to the negative control group (≥90%, MBIC90; ≥50%, MBIC50). The definition of the MBEC can be given when compared to the negative control group (≥90%, MBEC90; ≥50%, MBEC50).

E. coli = format: cell-based, Escherichia coli; conditions: 24 h
Protocol: as §1, §2

C. albicans = format: cell-based, Candida albicans; conditions: 24 h
Protocol: as §1, §2

[3] = test system: Galleria mellonella larvae; test: Toxicity to uninfected Galleria mellonella larvae; format: in vivo; conditions: uninfected G. mellonella larvae injected with drug; n = 30 per group; vancomycin 20 mg/kg
Protocol: (§5) The in vivo study of antimicrobial activity of the peptides was evaluated using the larvae of Galleria mellonella, which was described in the previous study with minor modifications. The larvae of Galleria mellonella (250 ± 25 mg; Livefood UK Ltd., Rooks Bridge, UK) were selected. The MRSA culture was prepared the same way as the antimicrobial activity assay. Then, MRSA cells were collected and washed, and further diluted to 10^8 CFU/mL in the saline. Ten µL of MRSA suspension was injected to the larvae and placed in a petri dish. After 2 h, the MRSA infected larvae were administrated with 10 µL of peptides (25 mg/kg, 50 mg/kg) by injection. Saline and vancomycin (20 mg/kg) (Sigma-Aldrich, UK) were used as the negative control and positive control, respectively. Each sample group contained 10 larvae, and the experiment was repeated three times (30 larvae for each group in total). The survival curves were achieved using Prism (Version 6.0; GraphPad Software Inc., San Diego, CA, USA) and the log-rank test was employed to analyze the significance between the different treatments and the controls. * (p < 0.05), ** (p < 0.01) and *** (p < 0.001) represent statistical significance.
Figure A9 Larvae without any MRSA infection were injected with peptides and vancomycin respectively to access the cytotoxicity of the drugs to larvae bodies. […] Effect of treatment of G. mellonella larvae (n = 30 for each group) without any infection and only treated with 5 µL vancomycin (20 mg/kg), OSd, OSe and OSf.

[4] = test system: P. aeruginosa (ATCC 27853) biofilm; format: cell-based, Pseudomonas aeruginosa; conditions: for MBIC50 / MBIC90: ATCC 27853, 24 h
Protocol: as §3, §4

horse red blood cells = test: Haemolysis assay and therapeutic index; conditions: 2% horse red blood cells in PBS, 2 h, 37 °C, absorbance 570 nm; best-fitted curve
Protocol: The haemolytic activity of synthetic peptides was determined using the horse red blood cells that were extracted from the de-fibroblast whole horse blood (TCS Biosciences Ltd. Buckingham, UK). […] Briefly, the red blood cells were harvested and washed using PBS until all broken red blood cells were removed. Then, a 2% cell suspension was prepared using PBS. The peptide concentrations were set as antimicrobial activity assay and mixed with the red blood cells in the microcentrifuge tubes. After a 2 h-incubation at 37 °C, the tubes were centrifuged and the suspension was transferred into a clear 96 well plate. The absorbance of released haemoglobin in the suspension was detected at 570 nm by a plate reader. Besides, the red blood cells treated with PBS and 1% Triton X-100 were used as the negative and positive controls, respectively. […] The therapeutic index (TI) was further determined as below:(1) TI=HC50/product of n MICsn,

MRSA [5] = test: Treatment of MRSA-infected Galleria mellonella larvae; format: in vivo; conditions: 10 µL of 10^8 CFU/mL MRSA injected; peptide 25 or 50 mg/kg injected after 2 h; 30 larvae per group
Protocol: as §5

Structure (SMILES) | MIC (S. aureus; pH 6) [µM] | MIC (S. aureus; pH 7) [µM] | MIC (S. aureus; pH 8) [µM] | MIC (MRSA [1]; pH 6) [µM] | MIC (MRSA [1]; pH 7) [µM] | MIC (MRSA [1]; pH 8) [µM] | MBEC50 [2] [µM] | MBEC90 [2] [µM] | MBIC50 [2] [µM] | MBIC90 [2] [µM] | MIC (E. coli; pH 6) [µM] | MIC (E. coli; pH 7) [µM] | MIC (E. coli; pH 8) [µM] | MIC (C. albicans; pH 6) [µM] | MIC (C. albicans; pH 7) [µM] | MIC (C. albicans; pH 8) [µM] | toxicity to larvae without MRSA infection [3] | MBEC50 [4] [µM] | MBEC90 [4] [µM] | MBIC50 [4] [µM] | further results
CC(C)C[C@H](NC(=O)[C@H](C)NC(=O)[C@H](Cc1c[nH]c2ccccc12)NC(=O)[C@H](CCCCN)NC(=O)[C@H](CC(C)C)NC(=O)[C@@H](N)Cc1ccccc1)C(=O)N[C@@H](CCCCN)C(=O)N[C@H](C(=O)N[C@@H](C)C(=O)N[C@@H](C)C(=O)N[C@@H](CCCCN)C(N)=O)C(C)C [OSd] (H-FLKWALKVAAK-NH2) | 64 (≈ 81.5 µg/mL) | 32 (≈ 40.8 µg/mL) | 32 (≈ 40.8 µg/mL) | 256 (≈ 326 µg/mL) | 128 (≈ 163 µg/mL) | 64 (≈ 81.5 µg/mL) | 128 | 256 | 64 | 128 | 64 (≈ 81.5 µg/mL) | 64 (≈ 81.5 µg/mL) | 64 (≈ 81.5 µg/mL) | 64 (≈ 81.5 µg/mL) | 32 (≈ 40.8 µg/mL) | 32 (≈ 40.8 µg/mL) | No noticeable cytotoxicity | > 512 | > 512 | 128 | MBIC90 [4]: 256 µM
CC(C)C[C@H](NC(=O)[C@H](C)NC(=O)[C@H](Cc1c[nH]c2ccccc12)NC(=O)[C@H](CCCCN)NC(=O)[C@H](CC(C)C)NC(=O)[C@@H](N)Cc1ccccc1)C(=O)N[C@@H](CCCCN)C(=O)N[C@@H](Cc1c[nH]c2ccccc12)C(=O)N[C@@H](C)C(=O)N[C@@H](C)C(=O)N[C@@H](CCCCN)C(N)=O [OSe] (H-FLKWALKWAAK-NH2) | 16 (≈ 21.8 µg/mL) | 8 (≈ 10.9 µg/mL) | 4 (≈ 5.44 µg/mL) | 64 (≈ 87.1 µg/mL) | 16 (≈ 21.8 µg/mL) | 8 (≈ 10.9 µg/mL) | 128 | 128 | 64 | 64 | 32 (≈ 43.5 µg/mL) | 16 (≈ 21.8 µg/mL) | 16 (≈ 21.8 µg/mL) | 16 (≈ 21.8 µg/mL) | 8 (≈ 10.9 µg/mL) | 4 (≈ 5.44 µg/mL) | No noticeable cytotoxicity | > 512 | > 512 | 64 | HC50 (concentration causing 50% haemolysis of the red blood cells) (horse red blood cells): 64.03 µM; MBIC90 [4]: 128 µM
CC(C)C[C@H](NC(=O)[C@H](C)NC(=O)[C@H](Cc1c[nH]c2ccccc12)NC(=O)[C@H](CCCCN)NC(=O)[C@@H]1CCCN1C(=O)[C@H](CC(C)C)NC(=O)[C@@H](N)Cc1ccccc1)C(=O)N[C@@H](CCCCN)C(=O)N[C@@H](Cc1c[nH]c2ccccc12)C(=O)N[C@@H](C)C(=O)N[C@@H](C)C(=O)N[C@@H](CCCCN)C(N)=O [OSf] (H-FLPKWALKWAAK-NH2; N-terminus assumed) | 128 (≈ 187 µg/mL) | 8 (≈ 11.7 µg/mL) | 16 (≈ 23.3 µg/mL) | 512 (≈ 746 µg/mL) | 16 (≈ 23.3 µg/mL) | 32 (≈ 46.7 µg/mL) | 128 | 256 | 32 | 64 | 128 (≈ 187 µg/mL) | 8 (≈ 11.7 µg/mL) | 32 (≈ 46.7 µg/mL) | 128 (≈ 187 µg/mL) | 8 (≈ 11.7 µg/mL) | 16 (≈ 23.3 µg/mL) | No noticeable cytotoxicity | > 512 | > 512 | 64 | mortality of MRSA-infected larvae (MRSA [5]): dramatically decreased the mortality; also recorded: reduced the mortality; HC50 (concentration causing 50% haemolysis of the red blood cells) (horse red blood cells): 328.3 µM; MBIC90 [4]: 256 µM
